The values below come from US10717716B2, “1,3,4-oxadiazole derivative compounds as histone deacetylase 6 inhibitor, and the pharmaceutical composition comprising the same” (Chong Kun Dang Pharmaceutical Corp., priority 2015, dated 2020).

The target of this assay is T1, human recombinant HDAC6 (Homo sapiens, UniProt Q9UBN7).
T1 construct: purchased Calbiochem 382180
T1 sequence (Q9UBN7 1-1215): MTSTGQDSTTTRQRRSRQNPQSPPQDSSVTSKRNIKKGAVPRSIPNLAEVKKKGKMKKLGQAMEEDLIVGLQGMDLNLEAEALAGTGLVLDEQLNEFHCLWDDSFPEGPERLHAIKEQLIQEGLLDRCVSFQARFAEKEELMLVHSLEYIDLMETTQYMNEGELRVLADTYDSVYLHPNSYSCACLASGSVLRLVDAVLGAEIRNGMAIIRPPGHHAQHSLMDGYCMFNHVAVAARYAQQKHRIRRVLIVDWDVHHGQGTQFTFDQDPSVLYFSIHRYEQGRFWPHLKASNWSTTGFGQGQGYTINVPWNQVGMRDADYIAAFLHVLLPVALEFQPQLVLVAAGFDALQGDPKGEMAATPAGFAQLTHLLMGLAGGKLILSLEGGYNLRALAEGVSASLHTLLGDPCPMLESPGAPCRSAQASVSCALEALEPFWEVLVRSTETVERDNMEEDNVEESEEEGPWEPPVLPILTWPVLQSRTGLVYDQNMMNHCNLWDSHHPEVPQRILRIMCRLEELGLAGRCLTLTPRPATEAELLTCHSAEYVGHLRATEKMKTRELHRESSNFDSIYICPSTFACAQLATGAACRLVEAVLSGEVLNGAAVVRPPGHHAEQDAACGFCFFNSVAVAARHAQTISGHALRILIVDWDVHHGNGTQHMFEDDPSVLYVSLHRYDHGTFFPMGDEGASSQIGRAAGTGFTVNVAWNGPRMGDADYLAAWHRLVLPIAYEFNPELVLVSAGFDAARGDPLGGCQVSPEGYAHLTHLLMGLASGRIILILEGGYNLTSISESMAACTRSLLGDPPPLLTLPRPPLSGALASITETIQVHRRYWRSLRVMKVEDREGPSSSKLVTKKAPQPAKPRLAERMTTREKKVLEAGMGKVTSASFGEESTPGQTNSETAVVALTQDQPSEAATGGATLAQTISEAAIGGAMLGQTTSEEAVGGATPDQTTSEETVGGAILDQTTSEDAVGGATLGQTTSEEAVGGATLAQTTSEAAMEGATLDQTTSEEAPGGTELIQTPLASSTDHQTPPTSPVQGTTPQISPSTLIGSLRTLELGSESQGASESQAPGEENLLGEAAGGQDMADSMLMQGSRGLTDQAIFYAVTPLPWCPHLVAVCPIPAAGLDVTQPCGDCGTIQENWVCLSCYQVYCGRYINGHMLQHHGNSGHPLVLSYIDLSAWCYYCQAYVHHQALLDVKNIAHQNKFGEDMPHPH
Kind of assay: HDAC6 enzyme activity inhibition assay (HDAC Fluorimetric Drug Discovery Kit). The note with it: for HDAC6 selectivity (fold): HDAC6 over HDAC1; for IC50: human recombinant HDAC6, same protocol as HDAC1, read-out: HDAC6. The assay is classed as biochemical. The method in brief: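 Fluorimetric deacetylase assay: 5-fold serial compound dilutions, 0.3 μg recombinant human enzyme (HDAC1 or HDAC6, same protocol), 10 μM Fluor de Lys-SIRT1 substrate, 60 min at 30 °C. Signal developed 30 min, measured at 360/460 nm; IC50 values derived.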

As for `O=C(NCCN1CCC[C@H]1C(F)(F)F)N(Cc1ccc(-c2nnc(C(F)F)o2)cc1F)c1ccccc1` [Compound 21988, (S)-1-(4-(5-(difluoromethyl)-1,3,4-oxadiazol-2-yl)-2-fluorobenzyl)-1-phenyl-3-(2-(2-(trifluoromethyl)pyrrolidin-1-yl)ethyl)urea], the “HDAC6 selectivity (fold)” value is 33 fold and the IC50 was 0.301 µM.

`CC1CCN(CCNC(=O)N(Cc2ccc(-c3nnc(C(F)F)o3)cc2F)c2ccccc2)CC1` [Compound 21989, 1-(4-(5-(Difluoromethyl)-1,3,4-oxadiazol-2-yl)-2-fluorobenzyl)-3-(2-(4-methylpiperidin-1-yl)ethyl)-1-phenylurea]: the “HDAC6 selectivity (fold)” value was 80 fold and the IC50 came out at 0.124 µM.

For the molecule `O=C(NCCN1CCC(F)CC1)N(Cc1ccc(-c2nnc(C(F)F)o2)cc1F)c1ccccc1` [Compound 21990, 1-(4-(5-(Difluoromethyl)-1,3,4-oxadiazol-2-yl)-2-fluorobenzyl)-3-(2-(4-fluoropiperidin-1-yl)ethyl)-1-phenylurea], the “HDAC6 selectivity (fold)” value is 100 fold and the IC50 came out at 0.1 µM.

Regarding `O=C1CCN(CCNC(=O)N(Cc2ccc(-c3nnc(C(F)F)o3)cc2F)c2ccccc2)CC1` [Compound 21991, 1-(4-(5-(Difluoromethyl)-1,3,4-oxadiazol-2-yl)-2-fluorobenzyl)-3-(2-(4-oxopiperidin-1-yl)ethyl)-1-phenylurea], the “HDAC6 selectivity (fold)” value is 120 fold and the IC50 turned out to be 0.083 µM.

On to `C[C@@H]1CN(CCNC(=O)N(Cc2ccc(-c3nnc(C(F)F)o3)cc2F)c2ccccc2)C[C@H](C)N1` [Compound 21992, 1-(4-(5-(Difluoromethyl)-1,3,4-oxadiazol-2-yl)-2-fluorobenzyl)-3-(2-((3S,5R)-3,5-dimethylpiperazin-1-yl)ethyl)-1-phenylurea], for which the “HDAC6 selectivity (fold)” value is 133 fold and the IC50 was 0.075 µM.

For `CN1CCN(CCNC(=O)N(Cc2ccc(-c3nnc(C(F)F)o3)cc2F)c2ccccc2)CC1` [Compound 21993, 1-(4-(5-(Difluoromethyl)-1,3,4-oxadiazol-2-yl)-2-fluorobenzyl)-3-(2-(4-methylpiperazin-1-yl)ethyl)-1-phenylurea], the “HDAC6 selectivity (fold)” value came out at 117 fold and the IC50 stood at 0.086 µM.

For the molecule `CCN1CCN(CCNC(=O)N(Cc2ccc(-c3nnc(C(F)F)o3)cc2F)c2ccccc2)CC1` [Compound 21994, 1-(4-(5-(Difluoromethyl)-1,3,4-oxadiazol-2-yl)-2-fluorobenzyl)-3-(2-(4-ethylpiperazin-1-yl)ethyl)-1-phenylurea], the “HDAC6 selectivity (fold)” value stood at 81 fold and the IC50 came out at 0.123 µM.

As to `CC(=O)N1CCN(CCNC(=O)N(Cc2ccc(-c3nnc(C(F)F)o3)cc2F)c2ccccc2)CC1` [Compound 21995, 3-(2-(4-Acetylpiperazin-1-yl)ethyl)-1-(4-(5-(difluoromethyl)-1,3,4-oxadiazol-2-yl)-2-fluorobenzyl)-1-phenylurea], the “HDAC6 selectivity (fold)” value was found to be 111 fold and the IC50 was determined as 0.09 µM.

For `O=C(NCCN1CCN(CCO)CC1)N(Cc1ccc(-c2nnc(C(F)F)o2)cc1F)c1ccccc1` [Compound 21996, 1-(4-(5-(Difluoromethyl)-1,3,4-oxadiazol-2-yl)-2-fluorobenzyl)-3-(2-(4-(2-hydroxyethyl)piperazin-1-yl)ethyl)-1-phenylurea], the “HDAC6 selectivity (fold)” value was determined as 108 fold and the IC50 turned out to be 0.092 µM.

For `COCCN1CCN(CCNC(=O)N(Cc2ccc(-c3nnc(C(F)F)o3)cc2F)c2ccccc2)CC1` [Compound 21997, 1-(4-(5-(Difluoromethyl)-1,3,4-oxadiazol-2-yl)-2-fluorobenzyl)-3-(2-(4-(2-methoxyethyl)piperazin-1-yl)ethyl)-1-phenylurea], the “HDAC6 selectivity (fold)” value came out at 109 fold and the IC50 amounted to 0.091 µM.

In the case of `O=C(NCCN1CCN(CCCO)CC1)N(Cc1ccc(-c2nnc(C(F)F)o2)cc1F)c1ccccc1` [Compound 21998, 1-(4-(5-(Difluoromethyl)-1,3,4-oxadiazol-2-yl)-2-fluorobenzyl)-3-(2-(4-(3-hydroxypropyl)piperazin-1-yl)ethyl)-1-phenylurea], the “HDAC6 selectivity (fold)” value was 153 fold and the IC50 is 0.066 µM.

For `CC(=O)N1CCCN(CCNC(=O)N(Cc2ccc(-c3nnc(C(F)F)o3)cc2F)c2ccccc2)CC1` [Compound 21999, 3-(2-(4-Acetyl-1,4-diazepan-1-yl)ethyl)-1-(4-(5-(difluoromethyl)-1,3,4-oxadiazol-2-yl)-2-fluorobenzyl)-1-phenylurea], the “HDAC6 selectivity (fold)” value is reported as 85 fold and the IC50 came out at 0.117 µM.

As to `O=C(NCCN1CCCN(Cc2ccccc2)CC1)N(Cc1ccc(-c2nnc(C(F)F)o2)cc1F)c1ccccc1` [Compound 22000, 3-(2-(4-Benzyl-1,4-diazepan-1-yl)ethyl)-1-(4-(5-(difluoromethyl)-1,3,4-oxadiazol-2-yl)-2-fluorobenzyl)-1-phenylurea], the “HDAC6 selectivity (fold)” value amounted to 61 fold and the IC50 turned out to be 0.165 µM.

As to `O=C(C1CC1)N1CCN(CCNC(=O)N(Cc2ccc(-c3nnc(C(F)F)o3)cc2F)c2ccccc2)CC1` [Compound 22001, 3-(2-(4-(Cyclopropanecarbonyl)piperazin-1-yl)ethyl)-1-(4-(5-(difluoromethyl)-1,3,4-oxadiazol-2-yl)-2-fluorobenzyl)-1-phenylurea], the “HDAC6 selectivity (fold)” value was 116 fold and the IC50 is 0.087 µM.

For `CN(C)CCCN1CCN(CCNC(=O)N(Cc2ccc(-c3nnc(C(F)F)o3)cc2F)c2ccccc2)CC1` [Compound 22002, 1-(4-(5-(Difluoromethyl)-1,3,4-oxadiazol-2-yl)-2-fluorobenzyl)-3-(2-(4-(3-(dimethylamino)propyl)piperazin-1-yl)ethyl)-1-phenylurea], the “HDAC6 selectivity (fold)” value worked out at 85 fold and the IC50 was 0.118 µM.

On to `O=C(NCCN1CCC(N2CCOCC2)CC1)N(Cc1ccc(-c2nnc(C(F)F)o2)cc1F)c1ccccc1` [Compound 22003, 1-(4-(5-(Difluoromethyl)-1,3,4-oxadiazol-2-yl)-2-fluorobenzyl)-3-(2-(4-morpholinopiperidin-1-yl)ethyl)-1-phenylurea], for which the “HDAC6 selectivity (fold)” value is given as 99 fold and the IC50 came to 0.101 µM.

Regarding `O=C(NCCN1CCC(Cc2ccccc2)CC1)N(Cc1ccc(-c2nnc(C(F)F)o2)cc1F)c1ccccc1` [Compound 22004, 3-(2-(4-Benzylpiperidin-1-yl)ethyl)-1-(4-(5-(difluoromethyl)-1,3,4-oxadiazol-2-yl)-2-fluorobenzyl)-1-phenylurea], the “HDAC6 selectivity (fold)” value is on record as 24 fold and the IC50 was 0.412 µM.

As for `Cc1noc(C2CCN(CCNC(=O)N(Cc3ccc(-c4nnc(C(F)F)o4)cc3F)c3ccccc3)CC2)n1` [Compound 22005, 1-(4-(5-(Difluoromethyl)-1,3,4-oxadiazol-2-yl)-2-fluorobenzyl)-3-(2-(4-(3-methyl-1,2,4-oxadiazol-5-yl)piperidin-1-yl)ethyl)-1-phenylurea], the “HDAC6 selectivity (fold)” value amounted to 79 fold and the IC50 came out at 0.126 µM.

For `CCN(CCNC(=O)N(Cc1ccc(-c2nnc(C(F)F)o2)cc1F)c1ccccc1)Cc1ccccc1` [Compound 22006, 3-(2-(Benzyl(ethyl)amino)ethyl)-1-(4-(5-(difluoromethyl)-1,3,4-oxadiazol-2-yl)-2-fluorobenzyl)-1-phenylurea], the “HDAC6 selectivity (fold)” value was 37 fold and the IC50 stood at 0.27 µM.

Consider `O=C(NCCN1CCN(c2ccccc2)CC1)N(Cc1ccc(-c2nnc(C(F)F)o2)cc1F)c1ccccc1` [Compound 22007, 1-(4-(5-(Difluoromethyl)-1,3,4-oxadiazol-2-yl)-2-fluorobenzyl)-1-phenyl-3-(2-(4-phenylpiperazin-1-yl)ethyl)urea], for which the “HDAC6 selectivity (fold)” value is reported as 40 fold and the IC50 came to 0.249 µM.

Regarding `O=C(NCCN1CCN(c2ccccn2)CC1)N(Cc1ccc(-c2nnc(C(F)F)o2)cc1F)c1ccccc1` [Compound 22008, 1-(4-(5-(Difluoromethyl)-1,3,4-oxadiazol-2-yl)-2-fluorobenzyl)-1-phenyl-3-(2-(4-(pyridin-2-yl)piperazin-1-yl)ethyl)urea], the “HDAC6 selectivity (fold)” value is 73 fold and the IC50 was determined as 0.138 µM.
